Earlier results, collected in patent publication US11398630B2, “Method of generating energy from a hydrazide containing anode fuel, and fuel cell” (priority 2019, dated 2022).
Read-outs that look alike come from different tables or passages of the source.

Key:
[1] = ambient conditions

Compound	Toxicity-LD50 oral rat (rat; oral, rat)	also measured
B [Borohydride]	160 mg/kg	–
CO [Methanol]	>5,000 mg/kg	–
NNC(=O)NN [Carbohydrazide, carbohydrazide]	>5,000 mg/kg	miscibility with water [1]: ^aUnder ambient conditions, carbohydrazide is a solid, but it is completely miscible with water.; toxicity in words (rat; compared with hydrazine): nontoxic; LD50 (rat; rat, printed as mg/kg-rat, route not given): > 5,000 mg/kg
OCC(O)CO [Glycerol]	>5,000 mg/kg	–
COC [Dimethyl ether]	>5,000 mg/kg	–
CCO [Ethanol]	–	Toxicity-LD50 oral rat (rat; rat, in vivo, po): >5,000 mg/kg
